This experiment addresses Cathepsin S (Homo sapiens, UniProt P25774). Nature of the experiment: Cathepsin S inhibition, fluorogenic peptide substrate kinetic assay. It is filed as biochemical. As to conditions: Table II; Cathepsin S inhibition constant, pH5.5; read-out: Ki Cat. S. Summed up: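 Ki values derive from apparent constants fitted to progress curves, corrected for competition with substrate via [S] and Km. Kinetics were monitored at 380 nm excitation/450 nm emission, after substrate addition (Ac-HPVK-ACC, 50 μM final) to start the reaction.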

Sequence of Cathepsin S (P25774 115-331, species assumed): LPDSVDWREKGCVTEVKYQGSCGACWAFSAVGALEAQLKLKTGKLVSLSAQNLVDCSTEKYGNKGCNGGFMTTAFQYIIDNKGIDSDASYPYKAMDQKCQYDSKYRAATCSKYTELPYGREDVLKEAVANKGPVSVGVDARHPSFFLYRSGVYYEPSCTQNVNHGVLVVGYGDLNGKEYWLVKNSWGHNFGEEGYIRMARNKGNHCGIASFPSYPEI

Broadly, the Ki is a measure of affinity in units of concentration, obtained from inhibition or displacement. Consider `COc1ccc(S(=O)(=O)N[C@@H](CC2CCCCC2)C(=O)NCCN2CCc3cc(F)ccc32)cc1` [Compound 239, (S)-3-Cyclohexyl-N-[2-(5-fluoro-2,3-dihydro-indol-1-yl)-ethyl]-2-(4-methoxy-benzenesulfonylamino)-propionamide], for which the Ki is under 1 µM.

On to `COc1cccc(C(=O)N[C@@H](CCC2CCCCC2)C(=O)NCCN2CCc3cc(OCc4ccccc4)ccc32)c1` [Compound 19, (S)-N-{3-Cyclohexyl-1-[2-(5-benzyloxy-2,3-dihydro-indol-1-yl)-ethylcarbamoyl]-propyl}-3-methoxy-benzamide], for which the Ki is under 10 µM.

With `O=C(NCCN1CCc2cc(F)ccc21)[C@H](CC1CCCCC1)NS(=O)(=O)c1cccs1` [Compound 235, (S)-3-Cyclohexyl-N-[2-(5-fluoro-2,3-dihydro-indol-1-yl)-ethyl]-2-(thiophene-2-sulfonylamino)-propionamide], the Ki was under 1 µM.

Turning to `CC(C)(C)C[C@H](NC(=O)OCc1ccccc1)C(=O)N[C@@H](CC(=O)O)CN1CCc2cc(F)ccc21` [Compound 159, 3-(S)-(2-(S)-Benzyloxycarbonylamino-4,4-dimethyl-pentanoylamino)-4-(5-fluoro-2,3-dihydro-indol-1-yl)-butyric acid], the Ki is under 1 µM.

As for `C[C@@H](CNc1ccc(OC(F)(F)F)cc1)NC(=O)[C@H](CC1CCCCC1)NC(=O)[C@@H]1CCCO1` [Compound 29, Tetrahydrofuran-2-(S)-carboxylic acid {2-cyclohexyl-1-(S)-[1-(S)-methyl-2-(4-trifluoromethoxy-phenylamino)-ethylcarbamoyl]-ethyl}-amide], the Ki was under 0.1 µM.

As to `Cn1cncc1S(=O)(=O)N[C@@H](CC1CCCCC1)C(=O)NCCN1CCc2cc(F)ccc21` [Compound 232, (S)-3-Cyclohexyl-N-[2-(5-fluoro-2,3-dihydro-indol-1-yl)-ethyl]-2-(3-methyl-3H-imidazole-4-sulfonylamino)-propionamide], the Ki was under 10 µM.

As for `COc1cccc(C(=O)N[C@@H](CC2CCCCC2)C(=O)N[C@@H](CO)CN2CCc3cc(F)ccc32)c1` [Compound 150, N-{2-Cyclohexyl-1-(S)-[2-(5-fluoro-2,3-dihydro-indol-1-yl)-1-(R)-hydroxymethyl-ethylcarbamoyl]-ethyl}-3-methoxy-benzamide], the Ki is under 0.1 µM.

On to `C[C@@H](CN1CCc2cc(F)ccc21)NC(=O)[C@H](CC(C)(C)C)NC(=O)C1CC1` [Compound 177, Cyclopropanecarboxylic acid {1-(S)-[2-(5-fluoro-2,3-dihydro-indol-1-yl)-1-(S)-methyl-ethylcarbamoyl]-3,3-dimethyl-butyl}-amide], for which the Ki is under 0.1 µM.

`COc1ccc(CC(=O)N[C@@H](CC2CCCCC2)C(=O)NCCN2CCc3cc(F)ccc32)cc1` [Compound 6, (S)-3-Cyclohexyl-N-[2-(5-fluoro-2,3-dihydro-indol-1-yl)-ethyl]-2-[2-(4-methoxy-phenyl)-acetylamino]-propionamide]: the Ki was under 1 µM.

In the case of `C[C@@H](CNc1ccc(OCc2ccccc2)cc1)NC(=O)[C@H](CC1CCCCC1)NC(=O)c1ccc(-c2cccc(F)c2)o1` [Compound 266, 5-(3-Fluoro-phenyl)-furan-2-carboxylic acid {1-(S)-[2-(4-benzyloxy-phenylamino)-1-(S)-methyl-ethylcarbamoyl]-2-cyclohexyl-ethyl}-amide], the Ki is under 0.1 µM.

For `C[C@@H](CNc1ccc(OC(F)(F)F)cc1)NC(=O)[C@H](CC1CCCCC1)NS(=O)(=O)c1cccnc1` [Compound 183, (S,S)-3-Cyclohexyl-N-[1-methyl-2-(4-trifluoromethoxy-phenylamino)-ethyl]-2-(pyridine-3-sulfonylamino)-propionamide], the Ki is under 0.1 µM.

For the molecule `O=C(NCCN1CCc2cc(F)ccc21)[C@H](CC1CCCCC1)NS(=O)(=O)c1ccsc1` [Compound 248, (S)-3-Cyclohexyl-N-[2-(5-fluoro-2,3-dihydro-indol-1-yl)-ethyl]-2-(thiophene-3-sulfonylamino)-propionamide], the Ki was under 1 µM.

Take `CS(=O)(=O)N[C@@H](CC1CCCCC1)C(=O)NCCN1CCc2cc(F)ccc21` [Compound 249, (S)-3-Cyclohexyl-N-[2-(5-fluoro-2,3-dihydro-indol-1-yl)-ethyl]-2-methanesulfonylamino-propionamide]: the Ki was under 10 µM.

Consider `COc1ccc(N[C@H]2CCCC[C@H]2NC(=O)[C@H](CC(C)C)NC(=O)c2cccc(C)c2)cc1` (mixture of isomers) [Compound 33, N-{1-(S)-[cis-2-(4-Methoxy-phenylamino)-cyclohexylcarbamoyl]-3-methyl-butyl}-3-methyl-benzamide], for which the Ki is under 1 µM.

`CC(=O)N1CCC(Oc2ccc(C(=O)N[C@@H](CC3CCCCC3)C(=O)NCCN3CCc4cc(F)ccc43)cc2)CC1` [Compound 69, 4-(1-Acetyl-piperidin-4-yloxy)-N-(S)-{2-cyclohexyl-1-[2-(5-fluoro-2,3-dihydro-indol-1-yl)-ethylcarbamoyl]-ethyl}-benzamide]: the Ki is under 1 µM.

For the molecule `COc1cccc(C(=O)N[C@@H](CCC2CCCCC2)C(=O)NCCN2CCc3ccc(F)cc32)c1` [Compound 10, (S)-N-{3-Cyclohexyl-1-[2-(6-fluoro-2,3-dihydro-indol-1-yl)-ethylcarbamoyl]-propyl}-3-methoxy-benzamide], the Ki was under 10 µM.

As to `Cc1cccc(C(=O)N[C@@H](CCC2CCCCC2)C(=O)NCCN2CCc3cc(F)ccc32)c1` [Compound 204, N-((S)-1-(2-(5-fluoroindolin-1-yl)ethylcarbamoyl)-3-cyclohexylpropyl)-3-methylbenzamide], the Ki is under 1 µM.

On to `CC(C(=O)N[C@@H](CC1CCCCC1)C(=O)NCCN1CCc2cc(F)ccc21)c1ccc(F)cc1` (stereo partly drawn) [Compound 62, N-{2-cyclohexyl-1-(S)-[2-(5-fluoro-2,3-dihydro-indol-1-yl)-ethylcarbamoyl]-ethyl}-2-(4-fluoro-phenyl)-propionamide], for which the Ki was under 1 µM.

For `O=C(N[C@@H](Cc1ccc(Cl)cc1)C(=O)NCCN1CCc2cc(F)ccc21)c1ccc(-c2cccc(C(F)(F)F)c2)o1` [Compound 198, N-((S)-1-(2-(5-fluoroindolin-1-yl)ethylcarbamoyl)-2-(4-chlorophenyl)ethyl)-5-(3-(trifluoromethyl)phenyl)furan-2-carboxamide], the Ki was under 1 µM.

Take `O=C(NCCN1CCc2cc(F)ccc21)[C@H](CC1CCCCC1)NS(=O)(=O)c1scc(Br)c1Cl` [Compound 224, (S)-2-(4-Bromo-3-chloro-thiophene-2-sulfonylamino)-3-cyclohexyl-N-[2-(5-fluoro-2,3-dihydro-indol-1-yl)-ethyl]-propionamide]: the Ki was under 1 µM.

In the case of `COc1cc(C)c(NC[C@H](C)NC(=O)[C@H](CC2CCCCC2)NC(=O)c2ccc(-c3cccc(F)c3)o2)c(C)c1` [Compound 114, 5-(3-Fluoro-phenyl)-furan-2-carboxylic acid {2-cyclohexyl-1-(S)-[2-(4-methoxy-2,6-dimethyl-phenylamino)-1-(S)-methyl-ethylcarbamoyl]-ethyl}-amide], the Ki was under 0.1 µM.

Turning to `Cn1cnc(S(=O)(=O)N[C@@H](CC2CCCCC2)C(=O)NCCN2CCc3cc(F)ccc32)c1` [Compound 255, (S)-3-Cyclohexyl-N-[2-(5-fluoro-2,3-dihydro-indol-1-yl)-ethyl]-2-(1-methyl-1H-imidazole-4-sulfonylamino)-propionamide], the Ki was under 1 µM.

Take `O=C(N[C@@H](CC1CCCCC1)C(=O)NCCN1CCc2cc(F)ccc21)C1CCN(c2ccc(Cl)nn2)CC1` [Compound 56, 1-(6-Chloro-pyridazin-3-yl)-piperidine-4-carboxylic acid (S)-{2-cyclohexyl-1-[2-(5-fluoro-2,3-dihydro-indol-1-yl)-ethylcarbamoyl]-ethyl}-amide]: the Ki is under 1 µM.

Regarding `Cc1cccc(C(=O)N[C@@H](CC(C)(C)C)C(=O)NCCN2CCc3cc(F)ccc32)c1` [Compound 203, N-((S)-1-(2-(5-fluoroindolin-1-yl)ethylcarbamoyl)-3,3-dimethylbutyl)-3-methylbenzamide], the Ki is under 0.1 µM.

With `CC(C)(C)C[C@H](NC(=O)OC(C)(C)C)C(=O)N[C@@H](CC#N)CN1CCc2cc(F)ccc21` [Compound 164, {1-(S)-[2-Cyano-1-(S)-(5-fluoro-2,3-dihydro-indol-1-ylmethyl)-ethylcarbamoyl]-3,3-dimethyl-butyl}-carbamic acid tert-butyl ester], the Ki is under 1 µM.

For “(S)-3-Cyclohexyl-N-[2-(5-fluoro-2,3-dihydro-indol-1-yl)-ethyl]-2-(5-isoxazol-3-yl-thiophene-2-sulfonylamino)-propionamide [Compound 223]”, the Ki is under 1 µM.

As to `O=C(Nc1ccc(-c2ccccc2)s1)N[C@@H](CC1CCCCC1)C(=O)NCCN1CCc2cc(F)ccc21` [Compound 219, (S)-3-Cyclohexyl-N-[2-(5-fluoro-2,3-dihydro-indol-1-yl)-ethyl]-2-[3-(5-phenyl-thiophen-2-yl)-ureido]-propionamide], the Ki was under 10 µM.

As for `C[C@@H](CNc1ccc(S(C)(=O)=O)cc1)NC(=O)[C@H](CC1CCCCC1)NC(=O)c1ccc(-c2cccc(F)c2)o1` [Compound 89, 5-(3-Fluoro-phenyl)-furan-2-carboxylic acid {2-cyclohexyl-1-(S)-[2-(4-methanesulfonyl-phenylamino)-1-(S)-methyl-ethylcarbamoyl]-ethyl}-amide], the Ki was under 0.1 µM.

Consider `C[C@@H](CNc1ccc(OC(F)(F)F)cc1)NC(=O)[C@H](CC(C)(C)C)NC(=O)C1CCOCC1` [Compound 269, Tetrahydropyran-4-carboxylic acid {3,3-dimethyl-1-(S)-[1-(S)-methyl-2-(4-trifluoromethoxy-phenylamino)-ethylcarbamoyl]-butyl}-amide], for which the Ki was under 1 µM.

As to `C[C@@H](CNc1ccc(OC(F)F)cc1)NC(=O)[C@H](CC(C)(C)C)NC(=O)c1ccc(-c2cccc(F)c2)o1` [Compound 128, 5-(3-Fluoro-phenyl)-furan-2-carboxylic acid {1-(S)-[2-(4-difluoromethoxy-phenylamino)-1-(S)-methyl-ethylcarbamoyl]-3,3-dimethyl-butyl}-amide], the inhibition constant (Ki) is under 0.1 µM.

Source of the values: patent US20040248887A1, “Inhibitors of cathepsin S” (IRM LLC, priority 2003, published 2004).
